≈ marks a conversion by molar mass, not a printed value. Like-named read-outs stand apart in the source and are kept apart here.
Columns and labels:
[1] = system: Serratia marcescens 274; assay: Protection ability against systemic infection; type: in vivo, ICR mice; settings: iv, 168 h, i.p. infection, i.v. compound 1 hour later, survival at 1 week
Method: (§1) Protection ability against systemic infection was determined as follows. An aqueous suspension of test bacteria was intraperitoneally injected into 10 four week old ICR mice. One hour after the infection, test compounds were intravenously administered. The number of surviving mice was counted 1 week after injection to determine the dose at which 50% of the test animals were alive (ED50 :mg/kg).

[2] = system: Staphylococcus aureus Smith; assay: Antibacterial activity in vitro, agar plate dilution method (MIC); type: cell-based; settings: Mueller Hinton agar, 10^6 cells/ml, 37° C., 20 hours
Method: (§2) Antibacterial activity in vitro was determined in accordance with the agar plate dilution method. A platinum loop each of test bacteria (10^6 cells/ml), cultured in Mueller Hinton broth, was inoculated on Mueller Hinton agar plates which contained test compounds at various concentrations. After cultivating at 37° C. for 20 hours, the minimum inhibitory concentration (MIC μg/ml) was determined.

[3] = system: Escherichia coli 67; assay: as above; type: cell-based; settings: Mueller Hinton agar, 10^6 cells/ml, 37° C., 20 hours
Method: as §2

[4] = system: Serratia marcescens IFO3759; assay: as above; type: cell-based; settings: Mueller Hinton agar, 10^6 cells/ml, 37° C., 20 hours
Method: as §2

[5] = system: Pseudomonas aeruginosa IFO3445; assay: as above; type: cell-based; settings: Mueller Hinton agar, 10^6 cells/ml, 37° C., 20 hours
Method: as §2

[6] = system: Klebsiella pneumoniae IFO3317; assay: as above; type: cell-based; settings: Mueller Hinton agar, 10^6 cells/ml, 37° C., 20 hours
Method: as §2

[7] = LD50, Probit method; settings: in vivo, iv
Method: Next, LD50 of representative examples of the compounds of the present invention is shown in Table 3 wherein LD50 was determined in accordance with the Probit method.

[8] = system: Escherichia coli 111; assay: Protection ability against systemic infection; type: in vivo, ICR mice; settings: Escherichia coli, 111, in Mus musculus, iv, 168 h, i.p. infection, i.v. compound 1 hour later, survival at 1 week
Method: as §1

[9] = system: Pseudomonas aeruginosa IFO3445; assay: Protection ability against systemic infection; type: in vivo, ICR mice; settings: iv, 168 h, i.p. infection, i.v. compound 1 hour later, survival at 1 week
Method: as §1

[10] = system: Staphylococcus aureus 242 (methicillin-resistant strain); assay: Protection ability against systemic infection; type: in vivo, ICR mice; settings: in Mus musculus, iv, 168 h, i.p. infection, i.v. compound 1 hour later, survival at 1 week
Method: as §1

[11] = system: Bacteroides fragilis 5524; assay: Antibacterial activity in vitro, agar plate dilution method (MIC); type: cell-based; settings: Mueller Hinton agar, 10^6 cells/ml, 37° C., 20 hours
Method: as §2

[12] = in Mus musculus, Table 2-b, read-out: ED50
[13] = Serratia marcescens, 274, in Mus musculus, Table 2-a
[14] = in Mus musculus, Table 2-a, read-out: ED50

Nc1nc(/C(=N/OC(C(=O)O)c2ccc(O)c(O)c2)C(=O)N[C@@H]2C(=O)N3C(C(=O)O)=C(CSc4cc(C(=O)O)c5nnnn5n4)CS[C@H]23)cs1 (stereo partly drawn) [Compound 13, (6R,7R)-7-[2-(2-amino-4-thiazolyl)-2-[Z-[carboxy(3,4-dihydroxyphenyl)methyl]oxyimino]acetamido]-3-[(8-carboxytetrazolo [1,5-b]pyridazin-6-yl)thiomethyl]-8-oxo-5-thia-1-azabicyclo[4.2.0]oct-2-ene-2-carboxylic acid]
ED50 [1, 12]: 1.05 mg/kg | MIC [2]: 1.56 µg/mL (≈ 2.09 µM) | MIC [3]: 0.2 µg/mL (≈ 0.269 µM) | MIC [4]: 0.2 µg/mL (≈ 0.269 µM) | MIC [5]: 0.78 µg/mL (≈ 1.05 µM) | MIC [6]: < 0.05 µg/mL | LD50 [7]: > 1000 mg/kg

Nc1nc(/C(=N/O[C@H](C(=O)O)c2ccc(O)c(O)c2)C(=O)N[C@@H]2C(=O)N3C(C(=O)[O-])=C(C[n+]4ccccc4)CS[C@H]23)cs1 [Compound 15, (6R,7R)-7-[2-(2-amino-4-thiazolyl)-2-[Z-[(S)-carboxy(3,4-dihydroxyphenyl)methyl]oxyimino]acetamido]-3-(pyridiniummethyl)-8-oxo-5-thia-1-azabicyclo[4.2.0]oct-2-ene-2-carboxylate]
MIC [2]: 0.78 µg/mL (≈ 1.24 µM) | MIC [3]: 0.1 µg/mL (≈ 0.16 µM) | MIC [4]: 0.1 µg/mL (≈ 0.16 µM) | MIC [5]: 0.39 µg/mL (≈ 0.622 µM) | MIC [6]: < 0.05 µg/mL | LD50 [7]: > 1000 mg/kg

CC(C)(O/N=C(\C(=O)N[C@@H]1C(=O)N2C(C(=O)[O-])=C(C[n+]3ccccc3)CS[C@H]12)c1csc(N)n1)C(=O)O [CAZ, Ceftazidime, reference compound]
ED50 [1, 13]: 4.23 mg/kg | ED50 ([1]; Serratia marcescens, 274, in Mus musculus, Table 2-b): 6.41 mg/kg | ED50 ([8]; Table 2-a, read-out: ED50): 6.55 mg/kg | ED50 ([8]; Table 2-b): 3.91 mg/kg | ED50 ([9]; Pseudomonas aeruginosa, IFO3445, in Mus musculus, Table 2-a): 229 mg/kg | ED50 ([9]; Pseudomonas aeruginosa, IFO3445, in Mus musculus, Table 2-b): 230 mg/kg | ED50 ([10]; Table 2-a): > 100 mg/kg | ED50 ([10]; Table 2-b): > 2100 mg/kg

Cc1cc(SCC2=C(C(=O)O)N3C(=O)[C@@H](NC(=O)/C(=N\OC(=O)c4cc(O)c(O)cc4C)c4csc(N)n4)[C@H]3SC2)n2nc(C(=O)O)nc2n1 [Compound 3]
ED50 [1, 13]: 1.73 mg/kg | ED50 [9, 14]: 407 mg/kg | ED50 ([10]; Table 2-a, read-out: ED50): 1.79 mg/kg | MIC [3]: < 0.05 µg/mL | MIC [4]: < 0.05 µg/mL | MIC [5]: 0.2 µg/mL (≈ 0.27 µM) | MIC [6]: < 0.05 µg/mL

Cc1cc(SCC2=C(C(=O)O)N3C(=O)[C@@H](NC(=O)/C(=N\O[C@H](C(=O)O)c4ccc(O)c(O)c4)c4csc(N)n4)[C@H]3SC2)n2nc(C(=O)O)nc2n1 [Compound 9, (6R,7R)-7-[2-(2-amino-4-thiazolyl)-2-[Z-[(S)-carboxy(3,4-dihydroxyphenyl)-methyl]oxyimino]acetamido]-3-[(2-carboxy-5-methyl-s-triazolo [1,5-a]pyrimidin-7-yl)thiomethyl]-8-oxo-5-thia-1-azabicyclo[4.2.0]oct-2-ene-2-carboxylic acid]
ED50 [1, 12]: 0.47 mg/kg | ED50 ([8]; Table 2-b, read-out: ED50): 1.73 mg/kg | ED50 [9, 12]: 95 mg/kg | ED50 ([10]; Table 2-b, read-out: ED50): 3.34 mg/kg | MIC [11]: 6.25 µg/mL (≈ 8.25 µM) | MIC [2]: 0.78 µg/mL (≈ 1.03 µM) | MIC [3]: 0.1 µg/mL (≈ 0.132 µM) | MIC [4]: 0.05 µg/mL (≈ 0.066 µM) | MIC [5]: 1.56 µg/mL (≈ 2.06 µM) | MIC [6]: < 0.05 µg/mL | LD50 [7]: > 1000 mg/kg

Cn1nnnc1SCC1=C(C(=O)O)N2C(=O)[C@@H](NC(=O)[C@H](O)c3ccccc3)[C@H]2SC1 [CMD, Cefamandole, reference compound]
ED50 ([10]; Table 2-a, read-out: ED50): 31 mg/kg

CC(=O)Oc1cc(C)c(C(=O)O/N=C(\C(=O)N[C@@H]2C(=O)N3C(C(=O)O)=C(CSc4cc(C)nc5nc(C(=O)O)nn45)CS[C@H]23)c2csc(N)n2)cc1OC(C)=O [Compound 2, (6R,7R)-7-[2-(2-amino-4-thiazolyl)-2-[Z-(4,5-diacetoxy-2-methylbenzoyl)oxyimino]acetamido]-3-[(2-carboxy-5-methyl-s-triazolo [1,5-a]pyrimidin-7-yl)thiomethyl]-8-oxo-5-thia-1-azabicyclo[4.2.0]oct-2-ene-2-carboxylic acid]
ED50 [1, 14]: 3.08 mg/kg | ED50 ([8]; Table 2-a, read-out: ED50): 2.28 mg/kg | ED50 [9, 14]: 212 mg/kg | ED50 ([10]; Table 2-a, read-out: ED50): 7.9 mg/kg | MIC [2]: 0.78 µg/mL (≈ 0.945 µM) | MIC [3]: < 0.05 µg/mL | MIC [4]: < 0.05 µg/mL | MIC [5]: 0.2 µg/mL (≈ 0.242 µM) | MIC [6]: < 0.05 µg/mL | LD50 [7]: > 1000 mg/kg

Cc1cc(=O)n2nc(SCC3=C(C(=O)O)N4C(=O)[C@@H](NC(=O)/C(=N\OC(=O)c5cc(O)c(O)cc5C)c5csc(N)n5)[C@H]4SC3)sc2n1 [Compound 4]
MIC [2]: 0.39 µg/mL (≈ 0.534 µM) | MIC [3]: 0.78 µg/mL (≈ 1.07 µM) | MIC [4]: < 0.05 µg/mL | MIC [5]: 3.13 µg/mL (≈ 4.28 µM) | MIC [6]: < 0.05 µg/mL | LD50 [7]: > 1000 mg/kg

Reference: US5001121A, “Cephalosporin compounds and pharmaceutical compositions thereof” (Mochida Pharmaceutical Co., Ltd., priority 1985, dated 1991)
